The values below come from patent publication US12527762B2 (priority 2021, dated 2026).

Several values for one entry are separate records, joined by “and”; a condition that tells them apart may be missing. Identical values can stand only once. Like-named read-outs stand apart in the source and are kept apart here. Where only a bound is given, the exact number is not on record here.

A short description of one series: in vitro. The settings on record: African green monkey.
The test system of the next series is SARS-CoV-2. Briefly: microbe, parasite or virus in culture. In kind it is cell-based.
Series [1] has as its system MDA-MB-231 triple negative breast cancer cell line. Briefly: Luminescent cell viability assay (CellTiter glo), subtype-specific breast cancer cell lines. In kind it is cell-based. As to conditions: for IC50: MDA-MB-231, triple negative breast cancer cell line; for IC50 fold lower than Cisplatin: MDA-MB-231 cells. In general terms: In ATP-based viability assays light output follows the ATP content of the culture.

Series [2] has as its system HCC1937 triple negative breast cancer cell line. The series is described as above. In kind it is cell-based.
The subject of series [3] is HCC1419 HER2-positive breast cancer cell line. The description is as above. As to conditions: for IC50: HCC1419, HER2-positive breast cancer cell line; for IC50 fold lower than Herceptin: HCC1419 cells. In kind it is cell-based.
In series [4] the test system is MDA-MB-453 HER2-positive breast cancer cell line. The description is as above. It counts as cell-based.
The test system of series [5] is ZR-75-1 hormone-positive breast cancer cell line. Described as above. The settings on record: for IC50: ZR-75-1, hormone-positive breast cancer cell line; for IC50 fold lower than Tamoxifen: ZR-75-1 cells. It counts as cell-based.
Series [6] deals with MDA-MB-231 breast cancer cell line. The settings on record: value from literature, read-out: IC50 (positive control); cited from earlier work.
Series [7] has as its system MCF7/PR Paclitaxel resistant MCF7 cell line. Briefly: Luminescent cell viability assay (CellTiter glo), subtype-specific breast cancer cell lines. It counts as cell-based.
The subject of series [8] is MCF-7 breast cancer cell line. The settings on record: value from literature, read-out: IC50 (positive control); cited from earlier work.
In series [9] the test system is PANC-1 pancreatic cancer cell line. Briefly: Inhibition of cancer cell proliferation, CCK-8 assay. It counts as cell-based. (Tetrazolium assays rely on reduction of a dye to a coloured formazan, in cell work by metabolically active cells.)
Series [10] relates to A-549 non-small cell lung cancer cell line. Described as above. It counts as cell-based.
Series [11] concerns Hep-3B liver cancer cell line. The description is as above. It counts as cell-based.
Series [12] relates to Huh-7 liver cancer cell line. Described as above. In kind it is cell-based.
Series [13] deals with MDA-MB-231 breast cancer cell line. Described as above. In kind it is cell-based.
The subject of series [14] is H-1299 non-small cell lung cancer cell line. Described as above. It counts as cell-based.
The test system of series [15] is MCF-7 breast cancer cell line. Described as above. In kind it is cell-based.
Series [16] deals with MIAPACA-2 pancreatic cancer cell line. Briefly: Inhibition of cancer cell proliferation, CCK-8 assay. In kind it is cell-based.
The format of series [17] is in vitro ADME. As to conditions: PAMPA. The procedure: The permeability of an artificial membrane (barrier membrane from PermeaPad, 25 mm) to niclosamide of the cocrystal of Example 17 of the present invention was evaluated using the side-bi-side cell system, and compared with that of the niclosamide single material. 5 ml of an FeSSIF solution (37° C.) at pH 6.5 added with 3% (w/w) Kolliphor ELP was taken and contained in a donor cell, and […] of each sample was weighed and administered to the donor cell. 5 ml of a PBS solution of pH 7.4 added with 20% (w/w) HP-β-CD was added to the acceptor cell, the test was started, and 200 μl of the solution was taken 5 times from the acceptor cell every predetermined time and used as the test solution. Then, the acceptor cell was filled with the PBS solution of pH 7.4 added with 1 ml of 20% (w/w) HP-p-CD, and the total volume was maintained at 5 ml.
On the technique in general: In PAMPA a lipid-coated filter parts donor from acceptor wells.

The nature of series [18]: Solubility of niclosamide in pH 7 buffer solution (HPLC). In kind it is physicochemical. The procedure: A pH 7 solution prepared by mixing 0.1 N potassium phosphate and 0.1 N sodium hydroxide was used as the pH 7 buffer solution. […] After 1 hour of stirring, 5 ml of a supernatant was filtered with a 0.45 μm PVDF filter, and then the amount of dissolved niclosamide was evaluated using the filtered solution as a sample.

Series [19] can be described thus: Artificial membrane permeability of camostat, side-bi-side cell system (GIT-0-Lipid on PVDF membrane). It counts as in vitro ADME. The procedure: As an artificial membrane, 200 μl of a GIT-0-Lipid solution was used by dropping on the center of a 25 mm hydrophobic PVDF membrane. 5 ml of a 37° C. pH 5.0 FeSSIF solution was taken and contained in a donor cell, and 20 mg of the sample was weighed and administered to the donor cell. The test was started after adding 5 ml of an ethyl alcohol. pH 7.4 PBS buffer (1:9, v/v) solution to an acceptor cell, and 200 μl of the solution was taken five times from the acceptor cell every predetermined time and used as a test solution. Then, the acceptor cell was filled with 1 ml of the ethyl alcohol: pH 7.4 PBS buffer (1:9, v/v) solution to maintain a total volume of 5 ml.

For series [20], the system named is PANC-1 pancreatic cancer cell line. As to conditions: value from literature, read-out: IC50 (positive control); cited from earlier work.
Series [21] relates to MIAPACA-2 pancreatic cancer cell line. As to conditions: value from literature, read-out: IC50 (positive control); cited from earlier work.
The test system of series [22] is Hep-3B liver cancer cell line. The settings on record: value from literature, read-out: IC50 (positive control); cited from earlier work.
In series [23] the test system is Huh-7 liver cancer cell line. The settings on record: value from literature, read-out: IC50 (positive control); cited from earlier work.
[24] abbreviates: Severe acute respiratory syndrome coronavirus 2, SARS-CoV-2 in Vero cells, 24 hours after infection, read-out: IC50.
Where [25] appears, read: SARS-CoV-2 in Vero cells, 24 hours after infection, read-out: IC50.

Take `CCN(CC)CCCC(C)Nc1ccnc2cc(Cl)ccc12` (stereo not shown) [Chloroquine]: the CC50 in the series “in vitro” was greater than 150 µM. The IC50 – broadly, the concentration needed to halve the response being measured – in the series with SARS-CoV-2 (setting [24]) was found to be 7.47 µM.

For the compound `N.N.[Cl][Pt][Cl]` [Cisplatin, reference compound], the results for the IC50 in series [1] and in [2] were no less than 25 µM and 12.3 µM, respectively.

In the case of `CC(=O)O[C@@]12CO[C@@H]1C[C@H](O)[C@@]1(C)C(=O)[C@H](O)C3=C(C)[C@@H](OC(=O)[C@H](O)[C@@H](NC(=O)OC(C)(C)C)c4ccccc4)C[C@@](O)([C@@H](OC(=O)c4ccccc4)[C@H]21)C3(C)C` [Docetaxel, reference compound], the IC50 was no less than 25 µM in series [1] (Homo sapiens); no less than 25 µM in [3] (Homo sapiens); no less than 25 µM in series [4] (Homo sapiens); 24.2 µM in [5] (Homo sapiens); 0.635 µM in [6]; 11.4 µM in series [7] (Homo sapiens). The 50% inhibitory concentration (IC50) in [2] (Homo sapiens) is no less than 25 µM; in [8], 0.763 µM.

Consider `CN(C)C(=O)COC(=O)Cc1ccc(OC(=O)c2ccc(NC(=N)N)cc2)cc1.O=C(Nc1ccc([N+](=O)[O-])cc1Cl)c1cc(Cl)ccc1O` [Example 1], for which the IC50 was found to be 1.75 µM in [1]; 0.0993 µM in [9] (PANC-1, 48 hours drug treatment); 1.27 µM in series [3]; 0.976 µM in [10] (A-549, 48 hours drug treatment); 7.46 µM in series [4]; 5.37 µM in series [5]. Also, the IC50 in series [11] (Hep-3B, 48 hours drug treatment) turned out to be 0.0413 µM; in [7], 5.69 µM; in series [12] (Huh-7, 48 hours drug treatment) it was 0.134 µM; in the series on SARS-CoV-2 (setting [25]), 0.16 µM; in series [13] (MDA-MB-231, 48 hours drug treatment) it was 0.126 µM; in series [14] (H-1299, 48 hours drug treatment), 0.381 µM. Moreover, the half-maximal inhibitory concentration (IC50) in [2] was 4.98 µM; in [15] (MCF-7, 48 hours drug treatment) it was 0.428 µM; in [16] (MiaPaCa-2, 48 hours drug treatment), 0.729 µM. In series [1], the “IC50 fold lower than Cisplatin” value came out at 14 fold. The “IC50 fold lower than gemcitabine” value was 432 fold in series [9] (PANC-1 cell line) and 127 fold in [16] (MIAPACA-2 cell line). In [3], the “IC50 fold lower than Herceptin” value is 19 fold. In addition, the “IC50 fold lower than gefitinib” value in series [10] (A-549 cells) is on record as 13 fold; in series [14] (H-1299 cells), 45 fold. In addition, the “IC50 fold lower than Tamoxifen” value in series [5] was 1.7 fold. The “IC50 fold lower than Sorafenib” value in [11] (Hep-3B cells) was 297 fold; in series [12] (Huh-7 cells) it was 44 fold. The “SI (selectivity index, CC50/IC50)” value with SARS-CoV-2 (SARS-CoV-2 in Vero cells) is on record as 306. Also, the figures for the “IC50 fold lower than docetaxel” value in [13] (MDA-MB-231 cells) and in series [15] (MCF-7 cells) were 5 fold and 1.7 fold, respectively. In the series with Vero cells, this compound displayed a CC50 greater than 50 µM.

On to `CN(C)C(=O)COC(=O)Cc1ccc(OC(=O)c2ccc(NC(=N)N)cc2)cc1.O=C(Nc1ccc([N+](=O)[O-])cc1Cl)c1cc(Cl)ccc1O` [Example 17], for which the IC50 in [1] was 2.25 µM; in series [3], 1.5 µM; in series [4], 7.48 µM; in [5] it was 6.29 µM; in series [7], 5.82 µM; in the series with SARS-CoV-2 (setting [25]), 0.16 µM. The 50% inhibitory concentration (IC50) in series [2] was 4.55 µM. In addition, in series [1], the “IC50 fold lower than Cisplatin” value is reported as 11 fold. The “IC50 fold lower than Herceptin” value in series [3] was determined as 16 fold. The “IC50 fold lower than Tamoxifen” value in [5] turned out to be 1.4 fold. For the same compound, the “SI (selectivity index, CC50/IC50)” value with SARS-CoV-2 (SARS-CoV-2 in Vero cells) turned out to be 313. For the same compound, in [17], the “Cumulative permeation amount of drug” value is 2.03 μg/ml/cm^2/h. For the same compound, the “cumulative permeation amount of niclosamide, fold better than niclosamide single material” value in [17] is given as 1.72 fold. For the same compound, the “pH 7 solubility” value in series [18] is listed as 55.2 μg/ml. This compound also showed a CC50 in the series on Vero cells greater than 50 µM.

As to `CN(C)C(=O)COC(=O)Cc1ccc(OC(=O)c2ccc(NC(=N)N)cc2)cc1.O=C(Nc1ccc([N+](=O)[O-])cc1Cl)c1cc(Cl)ccc1O` [Example 21], the “Cumulative permeation amount J” value in series [19] (camostat, donor pH 5.0 FeSSIF 37° C., acceptor ethyl alcohol:pH 7.4 PBS (1:9)) was 876.29 μg/ml/cm^2/h and 876.26 μg/ml/cm^2/h. Besides, in series [19] (cocrystal vs camostat single material), the “cumulative permeation amount of camostat, fold better than camostat single material” value was determined as 1.56 fold.

For `Nc1ccn([C@@H]2O[C@H](CO)[C@@H](O)C2(F)F)c(=O)n1` [Gemcitabine], the IC50 in series [20] is 42.9 µM; in series [21] it was 92.7 µM.

`Cc1cccc(C)c1OCC(=O)N[C@@H](Cc1ccccc1)[C@@H](O)C[C@H](Cc1ccccc1)NC(=O)[C@H](C(C)C)N1CCCNC1=O` [Lopinavir]: the CC50 in “in vitro” was greater than 50 µM. Further, in the series with SARS-CoV-2 (SARS-CoV-2 in Vero cells), the “IC50 fold higher than the IC50 of the cocrystal” value is listed as “about 64.38 fold” and the “SI (selectivity index, CC50/IC50)” value is 4.85. Further, in the series on SARS-CoV-2 (setting [24]), the half-inhibitory concentration (IC50) is 10.3 µM.

For `O=C(Nc1ccc([N+](=O)[O-])cc1Cl)c1cc(Cl)ccc1O` [Niclosamide], the “Cumulative permeation amount of drug” value in [17] (4 mg/ml) came out at 1.18 μg/ml/cm^2/h. Further, the “pH 7 solubility” value is given as “hardly detected” in series [18] and less than 0.3 μg/ml in series [18] (1 h).

As to `CC(=O)O[C@H]1C(=O)[C@@]2(C)[C@H]([C@H](OC(=O)c3ccccc3)[C@]3(O)C[C@H](OC(=O)[C@H](O)[C@@H](NC(=O)c4ccccc4)c4ccccc4)C(C)=C1C3(C)C)[C@]1(OC(C)=O)CO[C@@H]1C[C@@H]2O` [Paclitaxel, reference compound], it took 13.7 µM to reach half-maximal inhibition in series [7] (Homo sapiens) (IC50).

For the compound `CCC(CC)COC(=O)[C@H](C)N[P@](=O)(OC[C@H]1O[C@@](C#N)(c2ccc3c(N)ncnn23)[C@H](O)[C@@H]1O)Oc1ccccc1` [Remdesivir], the CC50 in “in vitro” was greater than 50 µM. In addition, in the series on SARS-CoV-2 (SARS-CoV-2 in Vero cells), the “IC50 fold higher than the IC50 of the cocrystal” value is on record as “about 21.75 fold” and the “SI (selectivity index, CC50/IC50)” value is 14.35. Also, half-maximal inhibition in the series on SARS-CoV-2 (Severe acute respiratory syndrome coronavirus 2, Vero, 24 h) (IC50) required 3.48 µM.

Consider `CNC(=O)c1cc(Oc2ccc(NC(=O)Nc3ccc(Cl)c(C(F)(F)F)c3)cc2)ccn1` [Sorafenib], for which the IC50 is 12.3 µM in series [22] and 6 µM in series [23].
